In PubChem BioAssay (NCI):
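GI50 marks 50% less growth. TGI marks complete inhibition of growth.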

Assays:
Experiment in all cases: growth of human tumour cells (NCI), 384-well format
A498 renal = system: A498 renal
DU-145 prostate = system: DU-145 prostate
MOLT-4 leukemia = system: MOLT-4 leukemia
OVCAR-3 ovarian = system: OVCAR-3 ovarian
M14 melanoma = system: M14 melanoma
SF-268 CNS = system: SF-268 CNS
SK-MEL-28 melanoma = system: SK-MEL-28 melanoma
OVCAR-4 ovarian = system: OVCAR-4 ovarian
NCI-H226 lung = system: NCI-H226 lung
HOP-62 NSCLC = system: HOP-62 NSCLC
MALME-3M melanoma = system: MALME-3M melanoma
UACC-62 melanoma = system: UACC-62 melanoma
SR leukemia = system: SR leukemia
RXF 393 renal = system: RXF 393 renal
U251 glioblastoma = system: U251 glioblastoma
HL-60(TB) leukemia = system: HL-60(TB) leukemia
RPMI-8226 leukemia = system: RPMI-8226 leukemia
OVCAR-5 ovarian = system: OVCAR-5 ovarian
COLO 205 colon = system: COLO 205 colon
HT29 colon = system: HT29 colon
KM12 colon = system: KM12 colon
HCT-15 colon = system: HCT-15 colon
A549 NSCLC = system: A549 NSCLC
NCI-H322M lung = system: NCI-H322M lung
EKVX NSCLC = system: EKVX NSCLC
HOP-92 NSCLC = system: HOP-92 NSCLC
IGROV1 ovarian = system: IGROV1 ovarian
MDA-MB-468 breast = system: MDA-MB-468 breast
HCC-2998 colon = system: HCC-2998 colon
NCI/ADR-RES ovarian = system: NCI/ADR-RES ovarian
PC-3 prostate = system: PC-3 prostate
TK-10 renal = system: TK-10 renal
SK-MEL-5 melanoma = system: SK-MEL-5 melanoma
CAKI-1 renal = system: CAKI-1 renal
SN12C renal = system: SN12C renal
BT-549 breast = system: BT-549 breast
SF-539 CNS = system: SF-539 CNS
ACHN renal = system: ACHN renal
MDA-MB-435 melanoma = system: MDA-MB-435 melanoma
LOX IMVI melanoma = system: LOX IMVI melanoma
NCI-H23 lung = system: NCI-H23 lung
MCF7 breast = system: MCF7 breast
HS 578T breast = system: HS 578T breast
UACC-257 melanoma = system: UACC-257 melanoma
HCT-116 colon = system: HCT-116 colon
T-47D breast = system: T-47D breast
SK-OV-3 ovarian = system: SK-OV-3 ovarian
SNB-19 CNS = system: SNB-19 CNS
NCI-H522 lung = system: NCI-H522 lung
SNB-75 CNS = system: SNB-75 CNS
OVCAR-8 ovarian = system: OVCAR-8 ovarian
SF-295 CNS = system: SF-295 CNS
NCI-H460 NSCLC = system: NCI-H460 NSCLC
MDA-MB-231 breast = system: MDA-MB-231 breast

## COc1ccc2c(OCc3nnc4ccc(-c5ccccc5)nn34)ccnc2c1
A498 renal
  GI50: > 100 µM
  TGI: > 100 µM
DU-145 prostate
  GI50: > 100 µM
  TGI: > 100 µM
MOLT-4 leukemia
  GI50: > 100 µM
  TGI: > 100 µM
OVCAR-3 ovarian
  GI50: 29.8 µM
  TGI: 94.6 µM
M14 melanoma
  GI50: > 100 µM
  TGI: > 100 µM
SF-268 CNS
  GI50: > 100 µM
  TGI: > 100 µM
SK-MEL-28 melanoma
  GI50: > 100 µM
  TGI: > 100 µM
OVCAR-4 ovarian
  GI50: 28.9 µM
  TGI: > 100 µM
NCI-H226 lung
  GI50: > 100 µM
  TGI: > 100 µM
HOP-62 NSCLC
  GI50: 60.5 µM
  TGI: > 100 µM
MALME-3M melanoma
  GI50: > 100 µM
  TGI: > 100 µM
UACC-62 melanoma
  GI50: > 100 µM
  TGI: > 100 µM
SR leukemia
  GI50: > 100 µM
  TGI: > 100 µM
RXF 393 renal
  GI50: > 100 µM
  TGI: > 100 µM
U251 glioblastoma
  GI50: > 100 µM
  TGI: > 100 µM
HL-60(TB) leukemia
  GI50: > 100 µM
  TGI: > 100 µM
RPMI-8226 leukemia
  GI50: > 100 µM
  TGI: > 100 µM
OVCAR-5 ovarian
  GI50: > 100 µM
  TGI: > 100 µM
COLO 205 colon
  GI50: > 100 µM
  TGI: > 100 µM
HT29 colon
  GI50: > 100 µM
  TGI: > 100 µM
KM12 colon
  GI50: > 100 µM
  TGI: > 100 µM
HCT-15 colon
  GI50: > 100 µM
  TGI: > 100 µM
A549 NSCLC
  GI50: > 100 µM
  TGI: > 100 µM
NCI-H322M lung
  GI50: > 100 µM
  TGI: > 100 µM
EKVX NSCLC
  GI50: > 100 µM
  TGI: > 100 µM
HOP-92 NSCLC
  GI50: > 100 µM
  TGI: > 100 µM
IGROV1 ovarian
  GI50: > 100 µM
  TGI: > 100 µM
MDA-MB-468 breast
  GI50: > 100 µM
  TGI: > 100 µM
HCC-2998 colon
  GI50: > 100 µM
  TGI: > 100 µM
NCI/ADR-RES ovarian
  GI50: > 100 µM
  TGI: > 100 µM
PC-3 prostate
  GI50: > 100 µM
  TGI: > 100 µM
TK-10 renal
  GI50: 48.7 µM
  TGI: > 100 µM
SK-MEL-5 melanoma
  GI50: > 100 µM
  TGI: > 100 µM
CAKI-1 renal
  GI50: > 100 µM
  TGI: > 100 µM
SN12C renal
  GI50: 63 µM
  TGI: > 100 µM
BT-549 breast
  GI50: > 100 µM
  TGI: > 100 µM
SF-539 CNS
  GI50: > 100 µM
  TGI: > 100 µM
ACHN renal
  GI50: 42.2 µM
  TGI: > 100 µM
MDA-MB-435 melanoma
  GI50: > 100 µM
  TGI: > 100 µM
LOX IMVI melanoma
  GI50: > 100 µM
  TGI: > 100 µM
NCI-H23 lung
  GI50: > 100 µM
  TGI: > 100 µM
MCF7 breast
  GI50: > 100 µM
  TGI: > 100 µM
HS 578T breast
  GI50: > 100 µM
  TGI: > 100 µM
UACC-257 melanoma
  GI50: > 100 µM
  TGI: > 100 µM
HCT-116 colon
  GI50: > 100 µM
  TGI: > 100 µM
T-47D breast
  GI50: > 100 µM
  TGI: > 100 µM
SK-OV-3 ovarian
  GI50: > 100 µM
  TGI: > 100 µM
SNB-19 CNS
  GI50: 50.1 µM
  TGI: > 100 µM
NCI-H522 lung
  GI50: 44.6 µM
  TGI: > 100 µM
SNB-75 CNS
  GI50: > 100 µM
  TGI: > 100 µM
OVCAR-8 ovarian
  GI50: > 100 µM
  TGI: > 100 µM
SF-295 CNS
  GI50: > 100 µM
  TGI: > 100 µM
NCI-H460 NSCLC
  GI50: 73.8 µM
  TGI: > 100 µM
MDA-MB-231 breast
  GI50: > 100 µM
  TGI: > 100 µM
